Data taken from article PMC11604427 (Frontiers in Pharmacology, 2024).

What was measured:
[1] = molecular target: T1, Human recombinant PKMYT1 enzyme (Homo sapiens, UniProt Q99640); test: ADP-GLO enzyme inhibition assay; format: biochemical; settings: ADP-GLO method
T1 construct: purchased Abcam
T1 sequence (Q99640 1-499): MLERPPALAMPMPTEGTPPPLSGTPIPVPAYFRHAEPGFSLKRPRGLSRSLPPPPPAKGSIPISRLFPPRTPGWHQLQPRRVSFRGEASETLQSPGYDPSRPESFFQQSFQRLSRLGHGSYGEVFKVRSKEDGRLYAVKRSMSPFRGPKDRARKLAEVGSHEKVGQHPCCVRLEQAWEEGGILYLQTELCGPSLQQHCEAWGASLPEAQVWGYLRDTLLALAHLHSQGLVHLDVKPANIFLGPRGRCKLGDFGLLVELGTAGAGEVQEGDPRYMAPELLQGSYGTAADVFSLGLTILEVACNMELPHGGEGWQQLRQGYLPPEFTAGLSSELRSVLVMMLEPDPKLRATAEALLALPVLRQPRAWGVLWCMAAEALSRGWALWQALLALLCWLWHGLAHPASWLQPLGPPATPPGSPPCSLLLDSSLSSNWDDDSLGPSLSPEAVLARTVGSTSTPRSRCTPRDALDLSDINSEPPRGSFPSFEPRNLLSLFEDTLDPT
Procedure: The ADP-GLO™ kinase assay kit, purchased from Promega Corporation (Madison, WI, United States), included the ADP-GLO reagent, the kinase assay reagent, and ultra-pure ATP and ADP. PKMYT1 enzyme was dissolved in 5 μL of freshly prepared enzyme assay buffer containing 70 mM Hepes, 3 mM MgCl2, 3 mM MnCl2, 50 μg/mL PEG20000, 3 μM sodium orthovanadate, 1.2 mM dithiothreitol, and then injected into 384-well plates. […] The enzymatic reaction was initiated by adding 5 μL of ATP, followed by a 60-min incubation at 30°C. Subsequently, 15 μL of ADP-GLO reagent was added, and the incubation was continued for an additional 40 min at room temperature. Then, 30 μL of kinase detection reagent was introduced, and the samples were incubated for a final 30 min. Luminescence measurements were taken using an Envision plate reader (PerkinElmer). The IC50 value of each tested compound was calculated by GraphPad Prism software.

[2] = molecular target: T2, Human recombinant HDAC2 enzyme (Homo sapiens, UniProt Q92769); test: HDAC2 fluorescence enzyme inhibition assay (Boc-Lys(acetyl)-AMC); format: biochemical; settings: fluorescence signal-based method
T2 construct: purchased Abcam
Procedure: Firstly, a 96-well plate was loaded with a blend comprising 10 μL of HDAC2 enzyme solution and 50 μL of the test compounds at assorted concentrations, followed by incubation at a temperature of 37°C for a duration of 5 min. Subsequently, 10 μL of the fluorescent substrate Boc-Lys (acetyl)-AMC was added and continued for 30 min. Finally, 100 μL of developer containing trypsin and TSA was injected into each well and incubated for 20 min.

T2 sequence (Q92769 whole entry): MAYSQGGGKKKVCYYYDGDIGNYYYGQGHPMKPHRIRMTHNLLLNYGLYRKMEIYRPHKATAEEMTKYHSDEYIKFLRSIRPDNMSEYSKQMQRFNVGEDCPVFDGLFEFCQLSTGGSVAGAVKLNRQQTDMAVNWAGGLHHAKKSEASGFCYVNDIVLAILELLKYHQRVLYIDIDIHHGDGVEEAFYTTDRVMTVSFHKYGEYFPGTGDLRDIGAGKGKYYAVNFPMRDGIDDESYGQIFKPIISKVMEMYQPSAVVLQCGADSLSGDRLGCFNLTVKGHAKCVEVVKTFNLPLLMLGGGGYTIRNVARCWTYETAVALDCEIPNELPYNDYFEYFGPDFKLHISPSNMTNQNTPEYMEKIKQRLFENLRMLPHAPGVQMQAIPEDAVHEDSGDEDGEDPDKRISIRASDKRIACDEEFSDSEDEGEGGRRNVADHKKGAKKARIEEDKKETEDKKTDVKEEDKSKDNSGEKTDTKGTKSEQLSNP

Compound	IC50 [1]	IC50 [2]	PKMYT1 (IC50, nM) [1]
Cc1ccc(O)c(C)c1-n1c(N)c(C(N)=O)c2cc(CCCCCC(=O)NO)c(CCCO)nc21 [PKHD-1]	11.1 ± 1.86 nM	8.64 ± 1.35 nM	–
CCc1nc2c(cc1CCCCCC(=O)NO)c(C(N)=O)c(N)n2-c1c(C)ccc(O)c1C [PKHD-2]	7.78 ± 0.91 nM	4.14 ± 0.52 nM	–
C=CCc1nc2c(cc1CCCCCC(=O)NO)c(C(N)=O)c(N)n2-c1c(C)ccc(O)c1C [PKHD-3]	9.26 ± 1.07 nM	5.47 ± 0.66 nM	–
CCCCc1nc2c(cc1CCCCCC(=O)NO)c(C(N)=O)c(N)n2-c1c(C)ccc(O)c1C [PKHD-4]	13.6 ± 1.94 nM	7.31 ± 1.12 nM	–
O=C(CCCCCCC(=O)Nc1ccccc1)NO [SAHA, Vorinostat, reference compound]	–	–	no inhibition
